Assays:
[1] = test system: morningglory; experiment: Test C pre-/postemergence test; assay type: in vivo, Ipomoea coccinea; details: for Plant response rating, Morningglory: 31 g ai/ha, scale 0 to 100 (0 no effect, 100 complete control)
How it was run: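 Compounds in a non-phytotoxic solvent with surfactant applied preemergence to seeded pots and, at the same time, postemergence to plants 2–18 cm tall (1- to 4-leaf stage). Paddy tests: pots flooded to 3 cm, compound applied into the water, depth held throughout.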

[2] = test system: rice; experiment: Test C flooded paddy test; assay type: in vivo, Oryza sativa; details: Flood
How it was run: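 Ratings were visual and made relative to untreated controls after 13 to 15 greenhouse days.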

[3] = test system: bermudagrass; experiment: Test F preemergence test; assay type: in vivo, Cynodon dactylon; details: scale 0 to 100
How it was run: (§1)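 Compounds in a non-phytotoxic solvent formulation with surfactant were applied before emergence after sowing, or, for sugarcane, also postemergence. Evaluation was visual, against controls, after 14 to 21 greenhouse days.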

[4] = test system: Surinam grass; experiment: Test F preemergence test; assay type: in vivo, Brachiaria decumbens; details: scale 0 to 100
How it was run: as §1

[5] = test system: large crabgrass; experiment: Test F preemergence test; assay type: in vivo, Digitaria sanguinalis; details: scale 0 to 100
How it was run: as §1

[6] = test system: goosegrass; experiment: Test F preemergence test; assay type: in vivo, Eleusine indica; details: scale 0 to 100
How it was run: as §1

[7] = test system: johnsongrass; experiment: Test F preemergence test; assay type: in vivo, Sorghum halepense; details: scale 0 to 100
How it was run: as §1

[8] = test system: kochia; experiment: Test F preemergence test; assay type: in vivo, Kochia scoparia; details: scale 0 to 100
How it was run: as §1

[9] = test system: pitted morningglory; experiment: Test F preemergence test; assay type: in vivo, Ipomoea lacunosa; details: scale 0 to 100
How it was run: as §1

[10] = test system: purple nutsedge; experiment: Test F preemergence test; assay type: in vivo, Cyperus rotundus; details: scale 0 to 100
How it was run: as §1

[11] = test system: common ragweed; experiment: Test F preemergence test; assay type: in vivo, Ambrosia elation; details: scale 0 to 100
How it was run: as §1

[12] = test system: Italian ryegrass; experiment: Test F preemergence test; assay type: in vivo, Lolium multiflorum; details: scale 0 to 100
How it was run: as §1

[13] = test system: broadleaf signalgrass; experiment: Test F preemergence test; assay type: in vivo, Brachiaria platyphylla; details: scale 0 to 100
How it was run: as §1

[14] = test system: Virginia dayflower; experiment: Test F preemergence test; assay type: in vivo, Commelina virginica; details: scale 0 to 100
How it was run: as §1

[15] = test system: annual bluegrass; experiment: Test F preemergence test; assay type: in vivo, Poa annua; details: scale 0 to 100
How it was run: as §1

[16] = test system: naked crabgrass; experiment: Test F preemergence test; assay type: in vivo, Digitaria nuda; details: scale 0 to 100
How it was run: as §1

[17] = 62 g ai/ha, Preemergence, scale 0 to 100

## Cn1nc(C(F)(F)F)c(C[S+]([O-])c2cccc[n+]2[O-])c1OCC(F)(F)F (racemic) [Compound 28]
[1]; [17]
  Morningglory plant response rating: 100
[1]; Preemergence
  Plant response rating, Morningglory: 40
[2]; 31 g ai/ha, scale 0 to 100 (0 no effect, 100 complete control)
  Plant response rating, Rice: 0
[2]; 62 g ai/ha, scale 0 to 100, 0 no effect, 100 complete control, 13 to 15 days
  Plant response rating, Rice: 25
[2]; 125 g ai/ha, scale 0 to 100, 0 no effect, 100 complete control, 13 to 15 days
  Plant response rating, Rice: 65
[2]; 250 g ai/ha, scale 0 to 100 (0 no effect, 100 complete control)
  Plant response rating, Rice: 80
[3]; 62 g ai/ha, Preemergence
  Bermudagrass plant response rating: 80
[3]; 125 g ai/ha, preemergence
  Bermudagrass plant response rating: 100
[3]; Preemergence, 16 g ai/ha
  Plant response rating, Bermudagrass: 0
[3]; Preemergence, 31 g ai/ha
  Plant response rating, Bermudagrass: 30
[4]; 62 g ai/ha, Preemergence
  Surinam Grass plant response rating: 100
[4]; 125 g ai/ha, preemergence
  Surinam Grass plant response rating: 100
[4]; Preemergence, 31 g ai/ha
  Plant response rating, Surinam Grass: 90
[5]; 62 g ai/ha, Preemergence
  Crabgrass, Large plant response rating: 100
[5]; 125 g ai/ha, preemergence
  Crabgrass, Large plant response rating: 100
[5]; Preemergence, 16 g ai/ha
  Plant response rating, Crabgrass, Large: 30
[5]; Preemergence, 31 g ai/ha
  Plant response rating, Crabgrass, Large: 80
[6]; 62 g ai/ha, Preemergence
  Goosegrass plant response rating: 100
[6]; 125 g ai/ha, preemergence
  Goosegrass plant response rating: 100
[6]; Preemergence, 16 g ai/ha
  Plant response rating, Goosegrass: 65
[6]; Preemergence, 31 g ai/ha
  Plant response rating, Goosegrass: 98
[7]; 62 g ai/ha, Preemergence
  Johnsongrass plant response rating: 100
[7]; 125 g ai/ha, preemergence
  Johnsongrass plant response rating: 100
[7]; Preemergence, 16 g ai/ha
  Plant response rating, Johnsongrass: 40
[7]; Preemergence, 31 g ai/ha
  Plant response rating, Johnsongrass: 75
[8]; 62 g ai/ha, Preemergence
  Kochia plant response rating: 100
[8]; 125 g ai/ha, preemergence
  Kochia plant response rating: 100
[8]; Preemergence, 16 g ai/ha
  Plant response rating, Kochia: 0
[8]; Preemergence, 31 g ai/ha
  Plant response rating, Kochia: 50
[9]; 62 g ai/ha, Preemergence
  Morningglory plant response rating: 100
[9]; 125 g ai/ha, preemergence
  Morningglory plant response rating: 100
[9]; Preemergence, 16 g ai/ha
  Plant response rating, Morningglory: 30
[9]; Preemergence, 31 g ai/ha
  Plant response rating, Morningglory: 80
[10]; 62 g ai/ha, Preemergence
  Purple Nutsedge plant response rating: 80
[10]; 125 g ai/ha, preemergence
  Purple Nutsedge plant response rating: 90
[10]; Preemergence, 16 g ai/ha
  Plant response rating, Purple Nutsedge: 0
[10]; Preemergence, 31 g ai/ha
  Plant response rating, Purple Nutsedge: 25
[11]; 62 g ai/ha, Preemergence
  Ragweed plant response rating: 80
[11]; 125 g ai/ha, preemergence
  Ragweed plant response rating: 90
[11]; Preemergence, 16 g ai/ha
  Plant response rating, Ragweed: 20
[11]; Preemergence, 31 g ai/ha
  Plant response rating, Ragweed: 70
[12]; 62 g ai/ha, Preemergence
  Ryegrass, Italian plant response rating: 100
[12]; 125 g ai/ha, preemergence
  Ryegrass, Italian plant response rating: 100
[12]; Preemergence, 16 g ai/ha
  Plant response rating, Ryegrass, Italian: 65
[12]; Preemergence, 31 g ai/ha
  Plant response rating, Ryegrass, Italian: 98
[13]; 62 g ai/ha, Preemergence
  Signalgrass plant response rating: 90
[13]; 125 g ai/ha, preemergence
  Signalgrass plant response rating: 100
[13]; Preemergence, 31 g ai/ha
  Plant response rating, Signalgrass: 75
[14]; 62 g ai/ha, Preemergence
  Dayflower plant response rating: 100
[14]; 125 g ai/ha, preemergence
  Dayflower plant response rating: 100
[14]; Preemergence, 16 g ai/ha
  Plant response rating, Dayflower: 20
[14]; Preemergence, 31 g ai/ha
  Plant response rating, Dayflower: 100
[15]; 62 g ai/ha, Preemergence
  Bluegrass plant response rating: 65
[15]; 125 g ai/ha, preemergence
  Bluegrass plant response rating: 100
[15]; Preemergence, 16 g ai/ha
  Plant response rating, Bluegrass: 0
[15]; Preemergence, 31 g ai/ha
  Plant response rating, Bluegrass: 40
[16]; 62 g ai/ha, Preemergence
  Crabgrass, Naked plant response rating: 90
[16]; 125 g ai/ha, preemergence
  Crabgrass, Naked plant response rating: 100
[16]; Preemergence, 16 g ai/ha
  Plant response rating, Crabgrass, Naked: 65
[16]; Preemergence, 31 g ai/ha
  Plant response rating, Crabgrass, Naked: 90

## CCn1nc(C(F)(F)F)c(CS(=O)(=O)c2cccc[n+]2[O-])c1OCC(F)(F)F [Compound 63]
[1]; [17]
  Morningglory plant response rating: 0
[1]; 125 g ai/ha, preemergence, scale 0 (no effect) to 100 (complete control)
  Morningglory plant response rating: 0
[1]; Preemergence
  Plant response rating, Morningglory: 0
[1]; preemergence, 250 g ai/ha, scale 0 (no effect) to 100 (complete control)
  Morningglory plant response rating: 0
[2]; 62 g ai/ha, scale 0 to 100 (0 no effect, 100 complete control)
  Plant response rating, Rice: 30
[2]; 250 g ai/ha, scale 0 to 100, 0 no effect, 100 complete control, 13 to 15 days
  Plant response rating, Rice: 35
[3]; 16 g ai/ha, preemergence
  Plant response rating, Bermudagrass: 50
[3]; 62 g ai/ha, Preemergence
  Bermudagrass plant response rating: 95
[3]; 125 g ai/ha, preemergence
  Bermudagrass plant response rating: 100
[3]; Preemergence, 31 g ai/ha
  Plant response rating, Bermudagrass: 80
[4]; 16 g ai/ha, preemergence
  Plant response rating, Surinam Grass: 70
[4]; 125 g ai/ha, preemergence
  Surinam Grass plant response rating: 100
[4]; Preemergence, 62 g ai/ha
  Plant response rating, Surinam Grass: 100
[4]; Preemergence, 31 g ai/ha
  Plant response rating, Surinam Grass: 80
[5]; 16 g ai/ha, preemergence
  Plant response rating, Crabgrass, Large: 25
[5]; 62 g ai/ha, Preemergence
  Crabgrass, Large plant response rating: 95
[5]; 125 g ai/ha, preemergence
  Crabgrass, Large plant response rating: 100
[5]; Preemergence, 31 g ai/ha
  Plant response rating, Crabgrass, Large: 90
[6]; 16 g ai/ha, preemergence
  Plant response rating, Goosegrass: 80
[6]; 62 g ai/ha, Preemergence
  Goosegrass plant response rating: 98
[6]; 125 g ai/ha, preemergence
  Goosegrass plant response rating: 100
[6]; Preemergence, 31 g ai/ha
  Plant response rating, Goosegrass: 90
[7]; 16 g ai/ha, preemergence
  Plant response rating, Johnsongrass: 35
[7]; 62 g ai/ha, Preemergence
  Johnsongrass plant response rating: 100
[7]; 125 g ai/ha, preemergence
  Johnsongrass plant response rating: 100
[7]; Preemergence, 31 g ai/ha
  Plant response rating, Johnsongrass: 80
[8]; 16 g ai/ha, preemergence
  Plant response rating, Kochia: 0
[8]; 62 g ai/ha, Preemergence
  Kochia plant response rating: 0
[8]; 125 g ai/ha, preemergence
  Kochia plant response rating: 100
[8]; Preemergence, 31 g ai/ha
  Plant response rating, Kochia: 0
[9]; 16 g ai/ha, preemergence
  Plant response rating, Morningglory: 0
[9]; 62 g ai/ha, Preemergence
  Morningglory plant response rating: 0
[9]; 125 g ai/ha, preemergence
  Morningglory plant response rating: 35
[9]; Preemergence, 31 g ai/ha
  Plant response rating, Morningglory: 0
[10]; 16 g ai/ha, preemergence
  Plant response rating, Purple Nutsedge: 0
[10]; 62 g ai/ha, Preemergence
  Purple Nutsedge plant response rating: 65
[10]; 125 g ai/ha, preemergence
  Purple Nutsedge plant response rating: 75
[10]; Preemergence, 31 g ai/ha
  Plant response rating, Purple Nutsedge: 15
[11]; 16 g ai/ha, preemergence
  Plant response rating, Ragweed: 0
[11]; 125 g ai/ha, preemergence
  Ragweed plant response rating: 100
[11]; Preemergence, 62 g ai/ha
  Plant response rating, Ragweed: 90
[11]; Preemergence, 31 g ai/ha
  Plant response rating, Ragweed: 40
[12]; 16 g ai/ha, preemergence
  Plant response rating, Ryegrass, Italian: 0
[12]; 125 g ai/ha, preemergence
  Ryegrass, Italian plant response rating: 100
[12]; Preemergence, 62 g ai/ha
  Plant response rating, Ryegrass, Italian: 80
[12]; Preemergence, 31 g ai/ha
  Plant response rating, Ryegrass, Italian: 60
[13]; 16 g ai/ha, preemergence
  Plant response rating, Signalgrass: 15
[13]; 125 g ai/ha, preemergence
  Signalgrass plant response rating: 100
[13]; Preemergence, 62 g ai/ha
  Plant response rating, Signalgrass: 100
[13]; Preemergence, 31 g ai/ha
  Plant response rating, Signalgrass: 40
[14]; 16 g ai/ha, preemergence
  Plant response rating, Dayflower: 0
[14]; 62 g ai/ha, Preemergence
  Dayflower plant response rating: 100
[14]; 125 g ai/ha, preemergence
  Dayflower plant response rating: 100
[14]; Preemergence, 31 g ai/ha
  Plant response rating, Dayflower: 100
[15]; 16 g ai/ha, preemergence
  Plant response rating, Bluegrass: 25
[15]; 62 g ai/ha, Preemergence
  Bluegrass plant response rating: 90
[15]; 125 g ai/ha, preemergence
  Bluegrass plant response rating: 100
[15]; Preemergence, 31 g ai/ha
  Plant response rating, Bluegrass: 65
[16]; 16 g ai/ha, preemergence
  Plant response rating, Crabgrass, Naked: 70
[16]; 62 g ai/ha, Preemergence
  Crabgrass, Naked plant response rating: 100
[16]; 125 g ai/ha, preemergence
  Crabgrass, Naked plant response rating: 100
[16]; Preemergence, 31 g ai/ha
  Plant response rating, Crabgrass, Naked: 70
